Results on 36 compounds are retold here after ChEMBL document CHEMBL4699568, “Crystal structure of Leishmania mexicana cysteine protease B in complex with a high-affinity azadipeptide nitrile inhibitor” (Bioorg Med Chem, 2020).

A short description of data set [1]: Inhibition of Leishmania mexicana CPB delta CTE mutant using Z-Phe-Arg-7-amido-4-methylcoumarin as substrate preincubated for 2 mins followed by substrate addition by fluorimetric assay.
The target in data set [2] is T1, Procathepsin L (Homo sapiens, UniProt P07711). Put plainly: Inhibition of human cathepsin L using Z-Phe-Arg-7-amido-4-methylcoumarin as substrate preincubated for 2 mins followed by substrate addition by fluorimetric assay.
The next data set concerns the target Cruzipain (Trypanosoma cruzi, UniProt P25779). Put plainly: Inhibition of recombinant Trypanosoma cruzi cruzain using Z-Phe-Arg-7-amido-4-methylcoumarin as substrate preincubated for 2 mins followed by substrate addition by fluorimetric assay.
The subject of data set [3] is Leishmania mexicana. Put plainly: Inhibition of Leishmania mexicana CPB delta CTE mutant assessed as on rate constant.
For data set [4], the system named is Leishmania mexicana. Put plainly: Inhibition of Leishmania mexicana CPB delta CTE mutant assessed as off rate constant.
The target of data set [5] is cathepsin L (Procathepsin L) (Homo sapiens, UniProt P07711). The data set is described as follows: Inhibition of human cathepsin L assessed as off rate constant. As to conditions: human cathepsin L enzyme, read-out: K.
For data set [6], the target named is Cruzipain (Trypanosoma cruzi) (UniProt P25779). Put plainly: Inhibition of recombinant Trypanosoma cruzi cruzain assessed as on rate constant.
For data set [7] the target is unchanged. Put plainly: Inhibition of recombinant Trypanosoma cruzi cruzain assessed as off rate constant.
Data set [8] concerns the target T1, Procathepsin L. The data set is described as follows: Inhibition of human cathepsin L assessed as on rate constant.

For orientation: pKi means −log10 of the Ki, conventionally taken in molar units. Read a low pKi as a high Ki. One may read the Ki as a dissociation constant, usually derived from enzyme kinetics or from competition with a known ligand.

T1 sequence (P07711 whole entry): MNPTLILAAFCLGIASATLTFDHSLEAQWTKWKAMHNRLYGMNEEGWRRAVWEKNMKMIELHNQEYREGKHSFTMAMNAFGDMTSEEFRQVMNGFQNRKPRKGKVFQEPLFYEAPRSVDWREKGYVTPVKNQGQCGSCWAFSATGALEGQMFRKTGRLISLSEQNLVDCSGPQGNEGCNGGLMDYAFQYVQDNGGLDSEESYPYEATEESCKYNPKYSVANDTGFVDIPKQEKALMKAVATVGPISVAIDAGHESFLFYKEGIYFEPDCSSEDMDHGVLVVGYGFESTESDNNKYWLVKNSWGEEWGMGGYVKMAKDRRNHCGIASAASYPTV
Cruzipain, sequence (P25779 whole entry): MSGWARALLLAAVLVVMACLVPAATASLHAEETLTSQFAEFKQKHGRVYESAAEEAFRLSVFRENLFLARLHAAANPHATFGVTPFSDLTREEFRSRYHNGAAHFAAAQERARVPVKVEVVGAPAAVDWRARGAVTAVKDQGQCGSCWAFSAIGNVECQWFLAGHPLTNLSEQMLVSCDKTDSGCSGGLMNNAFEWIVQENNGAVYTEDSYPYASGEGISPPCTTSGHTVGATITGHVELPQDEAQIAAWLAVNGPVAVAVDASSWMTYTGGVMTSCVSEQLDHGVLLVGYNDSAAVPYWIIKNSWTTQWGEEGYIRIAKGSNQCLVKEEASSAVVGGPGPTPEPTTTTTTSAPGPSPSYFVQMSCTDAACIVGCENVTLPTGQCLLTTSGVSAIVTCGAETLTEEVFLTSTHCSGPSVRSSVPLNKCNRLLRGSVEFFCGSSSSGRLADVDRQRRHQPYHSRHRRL
Cruzipain (Trypanosoma cruzi), sequence (P25779 123-467 limits assumed): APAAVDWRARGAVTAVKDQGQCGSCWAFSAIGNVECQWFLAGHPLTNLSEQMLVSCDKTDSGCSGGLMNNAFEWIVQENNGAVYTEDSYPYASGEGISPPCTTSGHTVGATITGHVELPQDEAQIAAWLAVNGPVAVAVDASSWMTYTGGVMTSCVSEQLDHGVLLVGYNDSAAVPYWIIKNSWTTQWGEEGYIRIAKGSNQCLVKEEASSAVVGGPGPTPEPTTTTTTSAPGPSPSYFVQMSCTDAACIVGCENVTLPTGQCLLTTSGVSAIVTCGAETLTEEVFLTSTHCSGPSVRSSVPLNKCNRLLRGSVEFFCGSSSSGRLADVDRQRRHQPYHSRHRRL
cathepsin L (Procathepsin L), sequence (P07711 whole entry): as the sequence (P07711 whole entry) above

Turning to `CC(C)C[C@H](NC(=O)OC(C)(C)C)C(=O)NCC#N`, the pKi in data set [1] is on record as 5.8. The Ki at Procathepsin L [2] was 2510 nM.

Take `CC(C)C[C@H](NC(=O)OC(C)(C)C)C(=O)NC1(C#N)CC1`: in data set [1], the pKi was determined as 6.3. Also, the affinity at Procathepsin L [2] corresponds to a Ki of 631 nM.

As to `N#CCNC(=O)[C@H](Cc1ccc(O)cc1)NC(=O)c1ccccc1`, the pKi in data set [1] is given as 5.7. This compound showed a Ki at Procathepsin L [2] of 79.4 nM.

In turn, `N#CC1(NC(=O)C2(NC(=O)c3ccccc3)CCCC2)CC1` registered a pKi in data set [1] of 5.2. Further, the Ki was 12600 nM at Cruzipain and 3980 nM at Procathepsin L [2].

`N#CCNC(=O)[C@H](Cc1ccccc1)NC(=O)c1ccccc1` registered a pKi in [1] of 6.6. Also, on Procathepsin L [2], the inhibition constant (Ki) was 126 nM.

Consider `CC(C)C[C@H](NC(=O)c1cc(C(C)(C)C)nn1C)C(=O)NC1(C#N)CC1`, for which, in data set [1], the pKi stood at 8.3. Further, the Ki at Procathepsin L [2] was 12.6 nM.

The compound `Cn1nc(C(C)(C)C)cc1C(=O)N[C@@H](Cc1ccccc1)C(=O)NC1(C#N)CC1` gave a pKi in [1] of 7.3. In addition, the Ki on Procathepsin L [2] was 5.01 nM.

`CC(C)(C)OC(=O)N[C@@H](Cc1ccccc1)C(=O)NCC#N` returned a pKi in data set [1] of 5.8. The Ki at Cruzipain is 2510 nM.

The compound `CC(C)C[C@H](NC(=O)c1cc(C(C)(C)C)nn1C)C(=O)N(C)N(C)C#N` registered a pKi in [1] of 9.7. Affinity at Procathepsin L [2] was put at a Ki of 0.501 nM. The K with Leishmania mexicana [3] is 0.22 10^-6/M/s; with Leishmania mexicana [4], 0.04 10^-6/s.

As for `CC(C)C[C@H](NC(=O)C1(c2ccccc2)CC1)C(=O)NC1(C#N)CC1`, the pKi in [1] is on record as 7.2. The Ki is 25.1 nM on Cruzipain and 5.01 nM at Procathepsin L [2].

Turning to `CC(C)C[C@H](NC(=O)Cc1ccccc1)C(=O)NC1(C#N)CC1`, the pKi in [1] turned out to be 7.2. In addition, the Ki at Cruzipain was 39.8 nM; at Procathepsin L [2], 63.1 nM.

For `CC(C)C[C@H](NC(=O)c1ccccc1)C(=O)NC1(C#N)CC1`, the negative-log Ki (pKi) in [1] came to 6.8.

In [1], `N#CCNC(=O)[C@H](Cc1ccccc1)NC(=O)c1cncnc1` returned a negative-log Ki (pKi) of 6.2. Besides, the inhibition constant Ki is 5010 nM on Cruzipain and 1000 nM on Procathepsin L [2].

`N#CCNC(=O)[C@H](Cc1ccccc1)NC(=O)OCc1ccccc1`: in [1], the negative-log Ki (pKi) came to 6.6. At Procathepsin L [2], the affinity, expressed as Ki, was 126 nM.

`CC(C)(C#N)NC(=O)[C@H](Cc1ccccc1)NC(=O)c1ccccc1` gave a negative-log Ki (pKi) in [1] of 5.7. At Procathepsin L [2], this compound had a Ki of 631 nM.

In data set [1], `N#CCNC(=O)[C@H](Cc1ccccc1)NC(=O)c1cncc(Br)c1` had a pKi of 6.9. Besides, the Ki at Cruzipain is 158 nM; at Procathepsin L [2] it was 10 nM.

In data set [1], `Cn1nc(C(C)(C)C)cc1C(=O)N[C@@H](Cc1ccccc1)C(=O)NCC#N` came in with a pKi of 7.4. The Ki at Procathepsin L [2] is 3.98 nM.

Compound `N#CCNC(=O)[C@H](Cc1c[nH]c2ccccc12)NC(=O)c1ccccc1` showed a negative logarithm of the Ki (pKi) in [1] of 6.1. The inhibition constant (Ki) on Procathepsin L [2] was 50.1 nM.

`CC(C)C[C@H](NC(=O)C(C)(C)c1ccccc1)C(=O)NC1(C#N)CC1`: the pKi in data set [1] amounted to 6.4. The Ki was 158 nM on Cruzipain and 39.8 nM at Procathepsin L [2].

`N#CCNC(=O)[C@H](Cc1ccccc1)NC(=O)c1cccs1` yielded a negative-log Ki (pKi) in [1] of 6.4. On Procathepsin L [2], this compound showed a Ki of 501 nM.

Turning to `CC(C)C[C@H](NC(=O)C(F)(F)c1ccccc1)C(=O)NC1(C#N)CC1`, in [1], the negative logarithm of the Ki (pKi) was found to be 6.8. In addition, the values for the Ki on Cruzipain and on Procathepsin L [2] were 63.1 nM and 31.6 nM, respectively.

On to `N#CCNC(=O)C1(NC(=O)c2ccccc2)CCCC1`, for which the pKi in [1] was 4.3. The compound also gave a Ki on Procathepsin L [2] of 10000 nM.

On to `N#CCNC(=O)[C@H](Cc1ccccc1)NC(=O)c1ccco1`, for which the negative-log Ki (pKi) in [1] was found to be 6.3. The same compound showed an inhibition constant (Ki) at Procathepsin L [2] of 501 nM.

Consider `N#CC1(NC(=O)[C@H](Cc2ccccc2)NC(=O)c2ccccc2)CC1`, for which, in [1], the pKi is given as 6.8. The same compound had an inhibition constant (Ki) at Procathepsin L [2] of 50.1 nM.

In turn, `Cn1nc(C(C)(C)C)cc1C(=O)N[C@@H](Cc1cccc(Cl)c1)C(=O)NCC#N` showed a pKi in data set [1] of 6.6. Besides, the affinity at Procathepsin L [2], expressed as Ki, was 1.26 nM.

Compound `CC(C)C[C@H](NC(=O)c1cc(C(C)(C)C)nn1C)C(=O)NCC#N` gave a negative logarithm of the Ki (pKi) in [1] of 7.6. The compound also gave a Ki at Procathepsin L [2] of 25.1 nM.

`N#CCNC(=O)[C@H](Cc1ccc(OC(=O)c2ccccc2)cc1)NC(=O)c1ccccc1` registered a negative logarithm of the Ki (pKi) in [1] of 6.9. The compound further showed an inhibition constant Ki on Procathepsin L [2] of 251 nM.

On to `N#CCNC(=O)[C@H](Cc1ccccc1)NC(=O)c1c[nH]c(=O)[nH]c1=O`, for which the pKi in data set [1] came to 6.5. The inhibitory constant (Ki) at Cruzipain was 1260 nM; at Procathepsin L [2] it was 1000 nM.

On to `N#CCNC(=O)[C@@H](Cc1ccccc1)NC(=O)c1ccccc1`, for which the negative logarithm of the Ki (pKi) in [1] is 5.9. Besides, the Ki at Cruzipain is 6310 nM; at Procathepsin L [2], 1580 nM.

In the case of `Cn1nc(C(F)(F)F)cc1C(=O)N[C@@H](Cc1ccccc1)C(=O)NCC#N`, the negative-log Ki (pKi) in data set [1] came out at 7. Further, the results for the inhibitory constant (Ki) on Cruzipain and at Procathepsin L [2] were 501 nM and 25.1 nM, respectively.

Compound `CC[C@@H](C)[C@H](NC(=O)c1ccccc1)C(=O)NC1(C#N)CC1` came in with a pKi in data set [1] of 5.5. For the same compound, the inhibition constant Ki at Cruzipain is 25100 nM; on Procathepsin L [2], 3160 nM.

`N#CCNC(=O)[C@H](Cc1cccc(Cl)c1)NC(=O)c1ccccc1` yielded a pKi in data set [1] of 5.2. Further, the affinity on Procathepsin L [2] corresponds to a Ki of 20 nM.

As to `CC(C)(C)OC(=O)N[C@@H](Cc1cccc(Cl)c1)C(=O)NCC#N`, the pKi in data set [1] amounted to 5.2. The compound also showed a Ki at Procathepsin L [2] of 251 nM.

Turning to `CC(C)C[C@H](NC(=O)C1(c2ccccc2)CCC1)C(=O)NC1(C#N)CC1`, the pKi in [1] was 7.6. The Ki on Cruzipain is 20 nM; at Procathepsin L [2], 5.01 nM.

In the case of `CN(C#N)N(C)C(=O)[C@H](Cc1ccccc1)NC(=O)c1cc(C(C)(C)C)nn1C`, the pKi in data set [1] came to 9.7. In data set [5], the koff came out at 8e-08 s⁻¹. In addition, the K in data set [6] is 7.7e+06 M⁻¹ s⁻¹; in the data set on Leishmania mexicana [3], 1 10^-6/M/s; in data set [7], 12 10^-6/s; with Leishmania mexicana [4], 0.2 10^-6/s; at Procathepsin L [8] it was 700000 M⁻¹ s⁻¹. This compound also showed an inhibition constant (Ki) on Procathepsin L [2] of 0.126 nM.

`N#CCNC(=O)[C@H](Cc1ccccc1)NC(=O)c1cnccn1` showed a pKi in data set [1] of 6.2. For the same compound, the Ki at Cruzipain was 6310 nM; at Procathepsin L [2], 1000 nM.
